Assay results: patent US20210251269A1, “Beverages Comprising Highly Soluble Steviol Glycoside Blend and Glucosylated Steviol Glycosides” (The Coca-Cola Company, priority 2018, published 2021)

How the values were obtained:
[1] = Solubility at syrup stage (lemon lime and cola beverage syrup, 5.5+1); type: physicochemical
Procedure: The ingredients were dissolved in filtered water to constitute a syrup, then the final beverage was made by weighing the appropriate syrup amount and adding carbonated water using a ratio of 1-part syrup+5.5 parts carbonated water. Final beverages were filled in 300 ml glass bottles then aged for 3 days at 35° C. before they were cooled and served cold (4° C.). The control with Reb-M was made by heating water up to around 47° C. then dissolving Reb-M. After complete dissolution, the concentrated Reb-M solution was cooled down to ambient temperature before the rest of the ingredients were added.

[2] = Sensory evaluation of beverages by expert panelists; type: in vivo; conditions: 480 ppm steviol glycosides in finished beverage; at least 5 expert panelists, blind; carbonated beverages tasted at 4° C.
Procedure: Steviol glycosides with high purity (>95%) namely Rebaudioside A, B, D, M, Glycosylated steviol glycoside (GSG) were evaluated in acidified citric buffer, a lemon lime and a cola carbonated beverage at concentration of 480 ppm in finished beverage.
The beverages were evaluated blindly by at least 5 expert panelists who work and taste steviol glycosides sweetened beverages daily. Samples were coded and randomly presented to the panelists. Panelists were instructed to eat an unsalted cracker and rinse the mouth with water before and in between samples. The maximum samples for each session was set at 5 samples to avoid fatigue. For each sample, panelists were instructed to take 3 sips, then write down their evaluation comments. Mock beverages were tasted at ambient temperature while carbonated beverages (diet lemon lime and cola) were tasted at 4° C.

[3] = cited from earlier work

C=C1C[C@@]23CC[C@H]4[C@@](C)(CCC[C@@]4(C)C(=O)O[C@@H]4O[C@H](CO)[C@@H](O)[C@H](O[C@@H]5O[C@H](CO)[C@@H](O)[C@H](O)[C@H]5O)[C@H]4O[C@@H]4O[C@H](CO)[C@@H](O)[C@H](O)[C@H]4O)[C@@H]2CC[C@]1(O[C@@H]1O[C@H](CO)[C@@H](O)[C@H](O[C@@H]2O[C@H](CO)[C@@H](O)[C@H](O)[C@H]2O)[C@H]1O[C@@H]1O[C@H](CO)[C@@H](O)[C@H](O)[C@H]1O)C3 [Reb-M, Rebaudioside M]
solubility at syrup stage [1]: 0.1%
Panelist Rating (1 = most preferred, 6 = least preferred) [2]: 2

C=C1C[C@@]23CC[C@H]4[C@@](C)(CCC[C@@]4(C)C(=O)O[C@@H]4O[C@H](CO)[C@@H](O)[C@H](O)[C@H]4O)[C@@H]2CC[C@]1(O[C@@H]1O[C@H](CO)[C@@H](O)[C@H](O[C@@H]2O[C@H](CO)[C@@H](O)[C@H](O)[C@H]2O)[C@H]1O[C@@H]1O[C@H](CO)[C@@H](O)[C@H](O)[C@H]1O)C3 [Rebaudioside A]
aqueous solubility [3]: about 0.8 wt %
